Measured values as given in the NIST ThermoML archive (doi:10.1021/je900444h).

Test: mn = molality of the nth substance listed, in mol/kg
Conditions: 101 kPa, Liquid; for mass density: Vibrating tube method; for viscosity: Capillary tube (Ostwald / Ubbelohde) method

CNC(=O)NC [1,3-dimethylurea] + O
Conditions	mass density [kg/m3]	viscosity [mPa·s]
283.15 K, m1 = 0.0033	999.7	–
283.15 K, m1 = 0.0331	1000	–
283.15 K, m1 = 0.0995	1000.6	–
283.15 K, m1 = 0.1669	1001.2	–
283.15 K, m1 = 0.2354	1001.8	–
283.15 K, m1 = 0.3039	1002.4	–
283.15 K, m1 = 0.3387	1002.7	–
283.15 K, m1 = 0.4997	1004.2	–
283.15 K, m1 = 0.7491	1006.5	–
283.15 K, m1 = 1.001	1008.7	–
283.15 K, m1 = 1.08	1009.4	–
283.15 K, m1 = 1.5	1013.2	–
283.15 K, m1 = 1.923	1016.8	–
283.15 K, m1 = 2.885	1024.6	–
283.15 K, m1 = 4.005	1032.6	–
283.15 K, m1 = 5.304	1040.7	–
283.15 K, m1 = 6.862	1048.7	–
283.15 K, m1 = 8.726	1056.3	–
283.15 K, m1 = 11.02	1063.4	–
283.15 K, m1 = 15.65	1072.5	–
283.15 K, m1 = 23.15	1079.6	–
288.15 K, m1 = 0.0033	999.1	1.173
288.15 K, m1 = 0.0331	999.4	1.187
288.15 K, m1 = 0.0995	1000	1.212
288.15 K, m1 = 0.1669	1000.5	1.232
288.15 K, m1 = 0.2354	1001.1	1.243
288.15 K, m1 = 0.3039	1001.7	1.255
288.15 K, m1 = 0.3387	1002	1.27
288.15 K, m1 = 0.4997	1003.4	–
288.15 K, m1 = 0.7491	1005.6	1.402
288.15 K, m1 = 1.001	1007.8	–
288.15 K, m1 = 1.08	1008.5	–
288.15 K, m1 = 1.5	1012.1	–
288.15 K, m1 = 1.923	1015.5	1.831
288.15 K, m1 = 2.885	1023	2.225
288.15 K, m1 = 4.005	1030.7	2.746
288.15 K, m1 = 5.304	1038.4	3.342
288.15 K, m1 = 6.862	1046	4.179
288.15 K, m1 = 8.726	1053.3	5.242
288.15 K, m1 = 11.02	1060.1	6.533
288.15 K, m1 = 15.65	1068.9	9.3
288.15 K, m1 = 23.15	1075.7	14.49
293.15 K, m1 = 0.0033	998.2	1.035
293.15 K, m1 = 0.0331	998.5	1.045
293.15 K, m1 = 0.0995	999	1.066
293.15 K, m1 = 0.1669	999.6	1.081
293.15 K, m1 = 0.2354	1000.2	1.094
293.15 K, m1 = 0.3039	1000.8	1.104
293.15 K, m1 = 0.3387	1001	1.117
293.15 K, m1 = 0.4997	1002.4	–
293.15 K, m1 = 0.7491	1004.5	1.228
293.15 K, m1 = 1.001	1006.6	–
293.15 K, m1 = 1.08	1007.3	–
293.15 K, m1 = 1.5	1010.7	–
293.15 K, m1 = 1.923	1014	1.581
293.15 K, m1 = 2.885	1021.2	1.902
293.15 K, m1 = 4.005	1028.5	2.325
293.15 K, m1 = 5.304	1035.9	2.805
293.15 K, m1 = 6.862	1043.3	3.464
293.15 K, m1 = 8.726	1050.2	4.27
293.15 K, m1 = 11.02	1056.8	5.262
293.15 K, m1 = 15.65	1065.3	7.377
293.15 K, m1 = 23.15	1071.9	11.22
298.15 K, m1 = 0.0033	997.1	0.9187
298.15 K, m1 = 0.0331	997.3	0.929
298.15 K, m1 = 0.0995	997.9	0.9456
298.15 K, m1 = 0.1669	998.4	0.9603
298.15 K, m1 = 0.2354	999	0.9716
298.15 K, m1 = 0.3039	999.5	0.9789
298.15 K, m1 = 0.3387	999.8	0.9944
298.15 K, m1 = 0.4997	1001.1	–
298.15 K, m1 = 0.7491	1003.2	1.084
298.15 K, m1 = 1.001	1005.2	–
298.15 K, m1 = 1.08	1005.8	–
298.15 K, m1 = 1.5	1009.2	–
298.15 K, m1 = 1.923	1012.3	1.379
298.15 K, m1 = 2.885	1019.2	1.649
298.15 K, m1 = 4.005	1026.3	1.998
298.15 K, m1 = 5.304	1033.3	2.382
298.15 K, m1 = 6.862	1040.4	2.921
298.15 K, m1 = 8.726	1047	3.535
298.15 K, m1 = 11.02	1053.4	4.342
298.15 K, m1 = 15.65	1061.6	5.955
298.15 K, m1 = 23.15	1068	8.8
303.15 K, m1 = 0.0033	995.7	0.8242
303.15 K, m1 = 0.0331	995.9	0.8316
303.15 K, m1 = 0.0995	996.4	0.8464
303.15 K, m1 = 0.1669	997	0.8592
303.15 K, m1 = 0.2354	997.5	0.8702
303.15 K, m1 = 0.3039	998.1	0.8753
303.15 K, m1 = 0.3387	998.3	0.887
303.15 K, m1 = 0.4997	999.6	–
303.15 K, m1 = 0.7491	1001.6	0.9652
303.15 K, m1 = 1.001	1003.6	–
303.15 K, m1 = 1.08	1004.2	–
303.15 K, m1 = 1.5	1007.4	–
303.15 K, m1 = 1.923	1010.5	1.216
303.15 K, m1 = 2.885	1017.1	1.44
303.15 K, m1 = 4.005	1023.8	1.729
303.15 K, m1 = 5.304	1030.6	2.055
303.15 K, m1 = 6.862	1037.4	2.49
303.15 K, m1 = 8.726	1043.8	3.002
303.15 K, m1 = 11.02	1049.8	3.603
303.15 K, m1 = 15.65	1057.8	4.927
303.15 K, m1 = 23.15	1064	7.122
308.15 K, m1 = 0.4997	997.9	–
308.15 K, m1 = 0.7491	999.8	0.8666
308.15 K, m1 = 1.001	1001.7	–
308.15 K, m1 = 1.08	1002.3	–
308.15 K, m1 = 1.5	1005.4	–
308.15 K, m1 = 1.923	1008.4	1.079
308.15 K, m1 = 2.885	1014.8	1.271
308.15 K, m1 = 4.005	1021.3	1.511
308.15 K, m1 = 5.304	1027.8	1.778
308.15 K, m1 = 6.862	1034.3	2.135
308.15 K, m1 = 8.726	1040.5	2.545
308.15 K, m1 = 11.02	1046.3	3.056
308.15 K, m1 = 15.65	1054	4.116
308.15 K, m1 = 23.15	1060.1	5.865
313.15 K, m1 = 0.4997	996	–
313.15 K, m1 = 0.7491	997.9	0.7797
313.15 K, m1 = 1.001	999.7	–
313.15 K, m1 = 1.08	1000.3	–
313.15 K, m1 = 1.5	1003.3	–
313.15 K, m1 = 1.923	1006.1	0.9649
313.15 K, m1 = 2.885	1012.3	1.127
313.15 K, m1 = 4.005	1018.6	1.336
313.15 K, m1 = 5.304	1024.9	1.56
313.15 K, m1 = 6.862	1031.1	1.859
313.15 K, m1 = 8.726	1037.1	2.195
313.15 K, m1 = 11.02	1042.8	2.626
313.15 K, m1 = 15.65	1050.2	3.513
313.15 K, m1 = 23.15	1056.1	4.918
318.15 K, m1 = 5.304	1021.8	1.38
318.15 K, m1 = 6.862	1027.8	1.632
318.15 K, m1 = 8.726	1033.6	1.906
318.15 K, m1 = 11.02	1039.1	2.268
318.15 K, m1 = 15.65	1046.3	3.024
318.15 K, m1 = 23.15	1052.1	4.196
323.15 K, m1 = 5.304	1018.6	1.222
323.15 K, m1 = 6.862	1024.5	1.44
323.15 K, m1 = 8.726	1030.1	1.681
323.15 K, m1 = 11.02	1035.4	1.983
323.15 K, m1 = 15.65	1042.4	2.646
323.15 K, m1 = 23.15	1048	3.658
328.15 K, m1 = 5.304	1015.9	1.095
328.15 K, m1 = 6.862	1021	1.293
328.15 K, m1 = 8.726	1026.5	1.492
328.15 K, m1 = 11.02	1031.6	1.76
328.15 K, m1 = 15.65	1038.4	2.333
328.15 K, m1 = 23.15	1043.9	3.212
333.15 K, m1 = 5.304	1012.3	1.024
333.15 K, m1 = 6.862	1017.5	1.164
333.15 K, m1 = 8.726	1022.7	1.343
333.15 K, m1 = 11.02	1027.8	1.564
333.15 K, m1 = 15.65	1034.4	2.061
333.15 K, m1 = 23.15	1039.8	2.818
